Measured values from US7994140B2, “Classes of compounds that interact with GPCRs” (Alchemia Limited, priority 2002, dated 2011).

Target: T1, MC4 (Homo sapiens, UniProt P32245)
T1 construct: purchased Perkin Elmer BioSignal; host or cells: HEK 293
Experiment: GPCR radioligand binding (RLB) assay, melanocortin MC4, [125I]NDP-αMSH
Settings: 4.0 Micromolar
Summary of the method: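 Membranes from HEK 293 cells expressing the recombinant human receptor were equilibrated with [125I]SST-14 (SST5) or [125I]NDP-αMSH (MC4), then compound added for an optimized incubation. Bound ligand separated by filtration on PEI-coated glass fiber and counted by liquid scintillation.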

T1 sequence (P32245 whole entry): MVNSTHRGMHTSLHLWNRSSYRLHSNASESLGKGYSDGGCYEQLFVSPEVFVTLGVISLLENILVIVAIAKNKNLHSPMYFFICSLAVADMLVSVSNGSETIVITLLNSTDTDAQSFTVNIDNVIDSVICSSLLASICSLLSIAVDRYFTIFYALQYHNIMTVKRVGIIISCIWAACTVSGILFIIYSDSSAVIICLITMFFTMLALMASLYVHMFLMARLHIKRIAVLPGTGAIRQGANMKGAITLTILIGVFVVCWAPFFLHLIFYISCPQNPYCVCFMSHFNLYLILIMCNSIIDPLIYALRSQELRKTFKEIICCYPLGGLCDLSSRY

SMILES	MC4 Inhibition at 4.0 Micromolar (Example Library 11)	MC4 Inhibition at 4.0 Micromolar (Example Library 12)
NCCC(=O)NC1C(OCc2ccccc2)OC(COCc2ccccc2)C(O)C1OCc1ccc(Cl)cc1 (stereo not drawn) [Compound 398]	+ (Indicates inhibition greater than . . . 50%)	
NCCC(=O)NC1C(OCc2ccccc2)OC(COCc2ccc(Cl)cc2)C(O)C1OCc1ccc(Cl)cc1 (stereo not drawn) [Compound 399]	+ (Indicates inhibition greater than . . . 50%)	
NCCC(=O)NC1C(OCc2ccccc2)OC(COCc2ccc3ccccc3c2)C(O)C1OCc1ccc2ccccc2c1 (stereo not drawn) [Compound 400]	+ (Indicates inhibition greater than . . . 50%)	
NCCC(=O)NC1C(OCc2ccccc2)OC(COCc2ccccc2)C(O)C1OCc1ccc2ccccc2c1 (stereo not drawn) [Compound 401]	+ (Indicates inhibition greater than . . . 50%)	
NCCC(=O)NC1C(OCc2ccccc2)OC(COCc2ccc(Cl)cc2)C(O)C1OCc1ccc2ccccc2c1 (stereo not drawn) [Compound 402]	+ (Indicates inhibition greater than . . . 50%)	
NCCC(=O)NC1C(OCc2ccccc2)OC(COCc2ccc3ccccc3c2)C(O)C1OCc1ccccc1 (stereo not drawn) [Compound 403]	+ (Indicates inhibition greater than . . . 50%)	
NCCC(=O)NC1C(OCc2ccccc2)OC(COCc2ccccc2)C(O)C1OCc1ccccc1 (stereo not drawn) [Compound 404]	+ (Indicates inhibition greater than . . . 50%)	
NCCC(=O)NC1C(OCc2ccccc2)OC(COCc2ccc(Cl)cc2)C(O)C1OCc1ccccc1 (stereo not drawn) [Compound 405]	+ (Indicates inhibition greater than . . . 50%)	
NCCCC(=O)NC1C(OCc2ccccc2)OC(COCc2ccc3ccccc3c2)C(O)C1OCc1ccc(Cl)cc1 (stereo not drawn) [Compound 406]	+ (Indicates inhibition greater than . . . 50%)	
NCCCC(=O)NC1C(OCc2ccccc2)OC(COCc2ccc(Cl)cc2)C(O)C1OCc1ccc(Cl)cc1 (stereo not drawn) [Compound 407]	+ (Indicates inhibition greater than . . . 50%)	
NCCCC(=O)NC1C(OCc2ccccc2)OC(COCc2ccc3ccccc3c2)C(O)C1OCc1ccc2ccccc2c1 (stereo not drawn) [Compound 408]	+ (Indicates inhibition greater than . . . 50%)	
NCCCC(=O)NC1C(OCc2ccccc2)OC(COCc2ccccc2)C(O)C1OCc1ccc2ccccc2c1 (stereo not drawn) [Compound 409]	+ (Indicates inhibition greater than . . . 50%)	
NCCCC(=O)NC1C(OCc2ccccc2)OC(COCc2ccc(Cl)cc2)C(O)C1OCc1ccc2ccccc2c1 (stereo not drawn) [Compound 410]	+ (Indicates inhibition greater than . . . 50%)	
NCCCC(=O)NC1C(OCc2ccccc2)OC(COCc2ccc3ccccc3c2)C(O)C1OCc1ccccc1 (stereo not drawn) [Compound 411]	+ (Indicates inhibition greater than . . . 50%)	
NCCCC(=O)NC1C(OCc2ccccc2)OC(COCc2ccc(Cl)cc2)C(O)C1OCc1ccccc1 (stereo not drawn) [Compound 412]	+ (Indicates inhibition greater than . . . 50%)	
NCCC(=O)NC1C(OCc2ccc3ccccc3c2)OC(COCc2ccc3ccccc3c2)C(O)C1OCc1ccc(Cl)cc1 (stereo not drawn) [Compound 413]	+ (Indicates inhibition greater than . . . 50%)	
NCCC(=O)NC1C(OCc2ccc3ccccc3c2)OC(COCc2ccccc2)C(O)C1OCc1ccc(Cl)cc1 (stereo not drawn) [Compound 414]	+ (Indicates inhibition greater than . . . 50%)	
NCCC(=O)NC1C(OCc2ccc3ccccc3c2)OC(COCc2ccc(Cl)cc2)C(O)C1OCc1ccc(Cl)cc1 (stereo not drawn) [Compound 415]	+ (Indicates inhibition greater than . . . 50%)	
NCCC(=O)NC1C(OCc2ccc3ccccc3c2)OC(COCc2ccc3ccccc3c2)C(O)C1OCc1ccc2ccccc2c1 (stereo not drawn) [Compound 416]	+ (Indicates inhibition greater than . . . 50%)	
NCCC(=O)NC1C(OCc2ccc3ccccc3c2)OC(COCc2ccccc2)C(O)C1OCc1ccc2ccccc2c1 (stereo not drawn) [Compound 417]	+ (Indicates inhibition greater than . . . 50%)	
NCCC(=O)NC1C(OCc2ccc3ccccc3c2)OC(COCc2ccc(Cl)cc2)C(O)C1OCc1ccc2ccccc2c1 (stereo not drawn) [Compound 418]	+ (Indicates inhibition greater than . . . 50%)	
NCCC(=O)NC1C(OCc2ccc3ccccc3c2)OC(COCc2ccc3ccccc3c2)C(O)C1OCc1ccccc1 (stereo not drawn) [Compound 419]	+ (Indicates inhibition greater than . . . 50%)	
NCCC(=O)NC1C(OCc2ccc3ccccc3c2)OC(COCc2ccccc2)C(O)C1OCc1ccccc1 (stereo not drawn) [Compound 420]	+ (Indicates inhibition greater than . . . 50%)	

SMILES	MC4 Inhibition at 4.0 Micromolar (Example Library 11)	MC4 Inhibition at 4.0 Micromolar (Example Library 12)
NCCC(=O)NC1C(OCc2ccc3ccccc3c2)OC(COCc2ccc(Cl)cc2)C(O)C1OCc1ccccc1 (stereo not drawn) [Compound 421]	+ (Indicates inhibition greater than . . . 50%)	
NCCCC(=O)NC1C(OCc2ccc3ccccc3c2)OC(COCc2ccc3ccccc3c2)C(O)C1OCc1ccc(Cl)cc1 (stereo not drawn) [Compound 422]	+ (Indicates inhibition greater than . . . 50%)	
NCCCC(=O)NC1C(OCc2ccc3ccccc3c2)OC(COCc2ccccc2)C(O)C1OCc1ccc(Cl)cc1 (stereo not drawn) [Compound 423]	+ (Indicates inhibition greater than . . . 50%)	
NCCCC(=O)NC1C(OCc2ccc3ccccc3c2)OC(COCc2ccc(Cl)cc2)C(O)C1OCc1ccc(Cl)cc1 (stereo not drawn) [Compound 424]	+ (Indicates inhibition greater than . . . 50%)	
NCCCC(=O)NC1C(OCc2ccc3ccccc3c2)OC(COCc2ccc3ccccc3c2)C(O)C1OCc1ccc2ccccc2c1 (stereo not drawn) [Compound 425]	+ (Indicates inhibition greater than . . . 50%)	
NCCCC(=O)NC1C(OCc2ccc3ccccc3c2)OC(COCc2ccccc2)C(O)C1OCc1ccc2ccccc2c1 (stereo not drawn) [Compound 426]	+ (Indicates inhibition greater than . . . 50%)	
NCCCC(=O)NC1C(OCc2ccc3ccccc3c2)OC(COCc2ccc(Cl)cc2)C(O)C1OCc1ccc2ccccc2c1 (stereo not drawn) [Compound 427]	+ (Indicates inhibition greater than . . . 50%)	
NCCCC(=O)NC1C(OCc2ccc3ccccc3c2)OC(COCc2ccc3ccccc3c2)C(O)C1OCc1ccccc1 (stereo not drawn) [Compound 428]	+ (Indicates inhibition greater than . . . 50%)	
NCCCC(=O)NC1C(OCc2ccc3ccccc3c2)OC(COCc2ccccc2)C(O)C1OCc1ccccc1 (stereo not drawn) [Compound 429]	+ (Indicates inhibition greater than . . . 50%)	
NCCCC(=O)NC1C(OCc2ccc3ccccc3c2)OC(COCc2ccc(Cl)cc2)C(O)C1OCc1ccccc1 (stereo not drawn) [Compound 430]	+ (Indicates inhibition greater than . . . 50%)	
N=C(N)NCC(=O)N[C@H]1C(OCc2ccccc2)O[C@H](COCc2ccc3ccccc3c2)[C@@H](O)[C@@H]1OCc1ccc(Cl)cc1 (stereo partly drawn) [Compound 431]		+ (Indicates inhibition greater than . . . 50%)
N=C(N)NCC(=O)N[C@H]1C(OCc2ccccc2)O[C@H](COCc2ccc3ccccc3c2)[C@@H](O)[C@@H]1OCc1ccc(Cl)cc1 (stereo partly drawn) [Compound 432]		+ (Indicates inhibition greater than . . . 50%)
N=C(N)NCC(=O)N[C@H]1C(OCc2ccccc2)O[C@H](COCc2ccccc2)[C@@H](O)[C@@H]1OCc1ccc(Cl)cc1 (stereo partly drawn) [Compound 433]		+ (Indicates inhibition greater than . . . 50%)
N=C(N)NCC(=O)N[C@H]1C(OCc2ccccc2)O[C@H](COCc2ccccc2)[C@@H](O)[C@@H]1OCc1ccc(Cl)cc1 (stereo partly drawn) [Compound 434]		+ (Indicates inhibition greater than . . . 50%)
N=C(N)NCC(=O)N[C@H]1C(OCc2ccccc2)O[C@H](COCc2ccc(Cl)cc2)[C@@H](O)[C@@H]1OCc1ccc(Cl)cc1 (stereo partly drawn) [Compound 435]		+ (Indicates inhibition greater than . . . 50%)
N=C(N)NCC(=O)N[C@H]1C(OCc2ccccc2)O[C@H](COCc2ccc3ccccc3c2)[C@@H](O)[C@@H]1OCc1ccc2ccccc2c1 (stereo partly drawn) [Compound 436]		+ (Indicates inhibition greater than . . . 50%)
N=C(N)NCC(=O)N[C@H]1C(OCc2ccccc2)O[C@H](COCc2ccc3ccccc3c2)[C@@H](O)[C@@H]1OCc1ccc2ccccc2c1 (stereo partly drawn) [Compound 437]		+ (Indicates inhibition greater than . . . 50%)
N=C(N)NCC(=O)N[C@H]1C(OCc2ccccc2)O[C@H](COCc2ccccc2)[C@@H](O)[C@@H]1OCc1ccc2ccccc2c1 (stereo partly drawn) [Compound 438]		+ (Indicates inhibition greater than . . . 50%)
N=C(N)NCC(=O)N[C@H]1C(OCc2ccccc2)O[C@H](COCc2ccc(Cl)cc2)[C@@H](O)[C@@H]1OCc1ccc2ccccc2c1 (stereo partly drawn) [Compound 439]		+ (Indicates inhibition greater than . . . 50%)
N=C(N)NCC(=O)N[C@H]1C(OCc2ccccc2)O[C@H](COCc2ccc(Cl)cc2)[C@@H](O)[C@@H]1OCc1ccc2ccccc2c1 (stereo partly drawn) [Compound 440]		+ (Indicates inhibition greater than . . . 50%)
N=C(N)NCC(=O)N[C@H]1C(OCc2ccccc2)O[C@H](COCc2ccc3ccccc3c2)[C@@H](O)[C@@H]1OCc1ccc(-c2ccccc2)cc1 (stereo partly drawn) [Compound 441]		+ (Indicates inhibition greater than . . . 50%)
N=C(N)NCC(=O)N[C@H]1C(OCc2ccccc2)O[C@H](COCc2ccccc2)[C@@H](O)[C@@H]1OCc1ccc(-c2ccccc2)cc1 (stereo partly drawn) [Compound 442]		+ (Indicates inhibition greater than . . . 50%)
